Laboratory results: PubChem BioAssay AID488786 (NMMLSC, 2010)
The source made the active and inactive calls.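 How the source made its calls: active means compounds whose fitted off-rate of the fluorescent probe exceeds 0.05 per second; inactive means the rest.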

These compounds were tested against Integrin alpha-4 (Homo sapiens) (UniProt P13612) (assay: LDV-FITC off-rate from VLA-4, SAR follow-up, mechanism study for VLA-4 allosteric modulator project, U937 cells, flow cytometry (AID 488786)). Conditions: LDV-FITC dissociation rate.
Sequence of Integrin alpha-4 (Homo sapiens) (P13612 whole entry, looked up): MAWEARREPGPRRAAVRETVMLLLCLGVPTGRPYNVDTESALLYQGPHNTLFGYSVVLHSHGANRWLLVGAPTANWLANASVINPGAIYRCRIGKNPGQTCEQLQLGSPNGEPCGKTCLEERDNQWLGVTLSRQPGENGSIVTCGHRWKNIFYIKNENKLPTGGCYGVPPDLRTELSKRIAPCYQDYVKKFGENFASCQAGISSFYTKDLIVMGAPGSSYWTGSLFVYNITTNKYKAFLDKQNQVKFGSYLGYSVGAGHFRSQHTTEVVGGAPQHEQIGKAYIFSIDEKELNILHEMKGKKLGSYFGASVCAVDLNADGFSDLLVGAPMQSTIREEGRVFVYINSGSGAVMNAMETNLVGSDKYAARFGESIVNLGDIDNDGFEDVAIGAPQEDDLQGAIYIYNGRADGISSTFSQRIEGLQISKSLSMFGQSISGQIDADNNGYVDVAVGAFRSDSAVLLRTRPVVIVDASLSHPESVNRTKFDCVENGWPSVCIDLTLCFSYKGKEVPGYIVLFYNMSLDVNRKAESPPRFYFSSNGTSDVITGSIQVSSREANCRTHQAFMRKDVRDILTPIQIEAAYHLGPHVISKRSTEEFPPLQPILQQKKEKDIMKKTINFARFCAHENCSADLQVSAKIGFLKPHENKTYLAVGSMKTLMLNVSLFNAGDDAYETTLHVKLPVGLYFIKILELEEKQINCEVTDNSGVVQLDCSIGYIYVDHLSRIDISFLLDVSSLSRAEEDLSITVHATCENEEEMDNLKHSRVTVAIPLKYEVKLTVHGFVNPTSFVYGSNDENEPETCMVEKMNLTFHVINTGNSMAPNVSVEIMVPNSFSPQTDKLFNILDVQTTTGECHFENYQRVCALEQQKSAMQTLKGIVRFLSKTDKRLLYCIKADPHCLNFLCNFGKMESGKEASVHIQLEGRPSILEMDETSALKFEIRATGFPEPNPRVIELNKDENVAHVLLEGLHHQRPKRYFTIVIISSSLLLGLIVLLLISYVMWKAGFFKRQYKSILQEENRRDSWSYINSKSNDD

| SMILES | outcome |
| --- | --- |
| O=C(COc1ccc(/C=N/NC(=O)c2cc3ccccc3o2)cc1Cl)Nc1ccccc1 | inactive |
| Cc1ccc(NC(=O)c2cc(N3C(=O)CCC3=O)ccc2N2CCOCC2)cc1Cl | inactive |
| CC(NC(=O)/C(C#N)=C/c1ccc(Cl)c([N+](=O)[O-])c1)c1ccccc1 (centres undefined) | inactive |
| COC(=O)C1CN(C#N)N(c2ccc(Cl)cc2)C12c1ccccc1-c1ccccc12 (centres undefined) | inactive |
| Cc1ccc(NC(=O)c2cc(N3C(=O)CCC3=O)ccc2N2CCOCC2)cc1 | inactive |
| CCOC(=O)/C(=C\c1ccc(OC(F)F)cc1)C1=Nn2c(nnc2-c2ccc(Cl)cc2)SC1 | inactive |
| COC(=O)C1OC2(OC1C(=O)OC)c1ccccc1-c1ccccc12 (centres undefined) | inactive |
| CCOCCCNC(=O)/C(C#N)=C/c1ccc(Cl)c([N+](=O)[O-])c1 | inactive |
| O=C1NC(=O)C2(N1)c1ccccc1-c1ccccc12 | inactive |
| COC(=O)[C@@H]1[C@@H](C(=O)OC)C2(c3ccccc3-c3ccccc32)N(c2ccc(Cl)cc2)N1C#N | inactive |
| FC(F)Oc1ccc(C2=Nn3c(nnc3-c3ccccc3Cl)SC2)cc1OCC1CC1 | inactive |
| CCOC(=O)COc1ccccc1/C=C\[N+](=O)[O-] | inactive |

Same assay, conditions: at 100 µM, hits give high values

| SMILES | dissociation rate |
| --- | --- |
| COc1cccc(-c2sc3ccccc3c2-c2ccc(OCCN(C)C)cc2)c1 | 0.06 s⁻¹ |
| COc1ccc(-c2sc3ccccc3c2-c2ccc(OCCN(C)C)cc2)cc1 | 0.08 s⁻¹ |
| COc1cccc(-c2sc3ccccc3c2-c2ccc(OCCN3CCCC3)cc2)c1 | 0.065 s⁻¹ |
| c1ccc2c(-c3ccc(OCCN4CCCC4)cc3)c(-c3ccsc3)sc2c1 | 0.048 s⁻¹ (inactive) |
| CN(C)CCOc1ccc(-c2c(-c3ccccc3)sc3ccccc23)cc1 | 0.06 s⁻¹ |
| c1ccc(-c2sc3ccccc3c2-c2ccc(OCCN3CCCC3)cc2)cc1 | 0.055 s⁻¹ |
| c1ccc2c(-c3ccc(OCCN4CCCCC4)cc3)c(-c3ccsc3)sc2c1 | 0.016 s⁻¹ (inactive) |
